The values that follow come from patent US9814704B2, “Substituted pyrrolo[2,3-b]pyridines as MLK inhibitors” (The University of Rochester, priority 2008, dated 2017).

Chain of MLK3 (Q16584 whole entry): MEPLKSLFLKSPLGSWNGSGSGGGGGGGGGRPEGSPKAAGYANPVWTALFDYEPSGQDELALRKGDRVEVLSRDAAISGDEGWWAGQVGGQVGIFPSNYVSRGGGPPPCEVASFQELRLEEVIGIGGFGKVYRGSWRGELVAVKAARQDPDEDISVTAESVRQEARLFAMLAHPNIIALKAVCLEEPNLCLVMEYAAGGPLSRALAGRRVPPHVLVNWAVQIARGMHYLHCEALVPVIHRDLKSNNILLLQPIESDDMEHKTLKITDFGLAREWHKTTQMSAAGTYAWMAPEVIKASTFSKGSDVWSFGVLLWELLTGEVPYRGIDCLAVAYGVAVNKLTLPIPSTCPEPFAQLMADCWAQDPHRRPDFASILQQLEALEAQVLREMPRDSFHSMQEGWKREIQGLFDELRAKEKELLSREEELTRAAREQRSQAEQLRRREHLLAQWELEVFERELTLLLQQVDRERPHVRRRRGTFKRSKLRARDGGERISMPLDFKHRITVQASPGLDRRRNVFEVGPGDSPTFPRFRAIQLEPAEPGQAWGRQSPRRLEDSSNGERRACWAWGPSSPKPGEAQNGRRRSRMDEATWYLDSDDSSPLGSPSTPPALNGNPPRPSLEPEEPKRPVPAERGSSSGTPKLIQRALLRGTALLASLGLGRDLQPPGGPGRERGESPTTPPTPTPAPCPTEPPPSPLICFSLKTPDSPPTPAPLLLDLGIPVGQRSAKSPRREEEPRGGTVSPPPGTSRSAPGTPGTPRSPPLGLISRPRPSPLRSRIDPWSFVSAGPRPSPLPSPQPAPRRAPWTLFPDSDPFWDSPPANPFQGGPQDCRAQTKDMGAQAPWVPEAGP

The target of one assay is MLK3 (Homo sapiens (Human), UniProt Q16584). The assay can be described thus: Radiometric Filter Plate MLK3 Assay. In kind it is biochemical. The following applies: 200 ng (130 nM) MLK3, 1 μM inactive MKK7b, 2 μM cold ATP (Km), 33P ATP, twenty minute incubation; read-out: MK3 IC50. As for the experimental part:
Radiometric Filter Plate MLK3 Assay
After a twenty minute incubation, the reactions were washed through filter plates and read on a scintillation counter. Results are shown in Table 4 below, in which +++ indicates ≦0.1 μM, ++ indicates >0.1 μM and ≦1 μM, and + indicates >1 μM.
The term IC50 denotes the point on the concentration scale where inhibition reaches its midpoint. `COc1cc(-c2cnc3[nH]c(=O)n(-c4ccc5[nH]cnc5c4)c3n2)cc(OC)c1OC` [Example 102, 1-(1H-benzo[d]imidazol-5-yl)-6-(3,4,5-trimethoxyphenyl)-1H-imidazo[4,5-b]pyrazin-2(3H)-one]: the IC50 is below 100 nM. The same measure, in the same setting: then `CS(=O)(=O)Nc1ccc(-c2cnc3[nH]cc(-c4ccc5[nH]ccc5c4)c3c2)cc1` [Example 11, N-(4-(3-(1H-indol-5-yl)-1H-pyrrolo[2,3-b]pyridin-5-yl)phenyl)methanesulfonamide], with below 100 nM; and `COc1cc(-c2cnc3[nH]cc(-c4ccc(N)cc4)c3c2)cc(OC)c1OC` [Example 15, 4-(5-(3,4,5-trimethoxyphenyl)-1H-pyrrolo[2,3-b]pyridin-3-yl)aniline], with below 100 nM; and `CN1CCN(Cc2cccc(-c3cnc4[nH]cc(-c5ccc(C(N)=O)cc5)c4c3)c2)CC1` [Example 156, 4-{5-[3-(4-methyl-piperazin-1-ylmethyl)-phenyl]-1H-pyrrolo[2,3-b]pyridin-3-yl}-benzamide], with below 100 nM. On the same count and under the same terms, then `Cc1cc(C)cc(-c2cnc3[nH]c(=O)n(-c4ccc5cn[nH]c5c4)c3n2)c1` [Example 95, 6-(3,5-dimethylphenyl)-1-(1H-indazol-6-yl)-1H-imidazo[4,5-b]pyrazin-2(3H)-one], with above 1000 nM; and `CN1CCN(Cc2ccc(-c3c[nH]c4ncc(-c5ccc(C(N)=O)cc5)cc34)cc2)CC1` [Example 162, 4-{3-[4-(4-methyl-piperazin-1-ylmethyl)-phenyl]-1H-pyrrolo[2,3-b]pyridin-5-yl}-benzamide], with below 100 nM; and `CC(C)(C)OC(=O)N1CCN(Cc2ccc(-c3cnc4[nH]cc(-c5ccc6[nH]ccc6c5)c4c3)cc2)CC1` [Example 144, 4-{4-[3-(1H-indol-5-yl)-1H-pyrrolo[2,3-b]pyridin-5-yl]-benzyl}-piperazine-1-carboxylic acid tert-butyl ester], with below 100 nM.

With `O=c1[nH]c2ncc(-c3ccc4cc[nH]c4c3)nc2n1-c1ccc2[nH]ccc2c1` [Example 56, 1-(1H-indol-5-yl)-6-(1H-indol-6-yl)-1H-imidazo[4,5-b]pyrazin-2(3H)-one], the IC50 is above 1000 nM. The same measure, in the same setting: then `COc1cc(-c2cnc3[nH]c(=O)n(-c4ccc5[nH]ccc5c4)c3n2)cc(OC)c1O` [Example 62, 6-(4-hydroxy-3,5-dimethoxyphenyl)-1-(1H-indol-5-yl)-1H-imidazo[4,5-b]pyrazin-2(3H)-one], with below 100 nM; and `COc1cc(-c2cnc3[nH]cc(-c4ccc5c(ccn5C)c4)c3c2)cc(OC)c1OC` [Example 24, 3-(1-methyl-1H-indol-5-yl)-5-(3,4,5-trimethoxyphenyl)-1H-pyrrolo[2,3-b]pyridine], with below 100 nM; and `COc1cc(-c2cnc3[nH]cc(-c4ccc(N(C)C)nc4)c3c2)cc(OC)c1OC` [Example 19, N,N-dimethyl-5-(5-(3,4,5-trimethoxyphenyl)-1H-pyrrolo[2,3-b]pyridin-3-yl)pyridin-2-amine], with below 100 nM. With `COc1cc(-c2cnc3[nH]cc(-c4ccc5[nH]ccc5c4)c3n2)ccc1N` [Example 38, 4-(7-(1H-indol-5-yl)-5H-pyrrolo[3,2-b]pyrazin-2-yl)-2-methoxyaniline], the IC50 was below 100 nM. Same read-out and setting: the value for `COc1ccc(-n2c(=O)[nH]c3ncc(-c4ccc(O)cc4)nc32)cc1` [Example 70, 6-(4-hydroxyphenyl)-1-(4-methoxyphenyl)-1H-imidazo[4,5-b]pyrazin-2(3H)-one] was above 1000 nM. Still for that read-out and setting: the value for `COc1cc(-c2cnc3[nH]cc(-c4ccc5[nH]ccc5c4)c3c2)ccc1OCCN(C)C` [Example 35, 2-(4-(3-(1H-indol-5-yl)-1H-pyrrolo[2,3-b]pyridin-5-yl)-2-methoxyphenoxy)-N,N-dimethylethanamine] was above 1000 nM; that for `COc1cc(-c2nc3c(nc2Cl)[nH]c(=O)n3CC2CC2)cc(OC)c1OC` [Example 119, 5-chloro-1-(cyclopropylmethyl)-6-(3,4,5-trimethoxyphenyl)-1H-imidazo[4,5-b]pyrazin-2(3H)-one] was above 1000 nM. Still for that read-out and setting: the value for `CN1CCN(Cc2ccc(-c3cnc4[nH]cc(-c5ccc(C(N)=O)cc5)c4c3)cc2)CC1=O` [Example 158, 4-{5-[4-(4-methyl-3-oxo-piperazin-1-ylmethyl)-phenyl]-1H-pyrrolo[2,3-b]pyridin-3-yl}-benzamide] was below 100 nM.

With `COc1cc(-c2cnc3[nH]c(=O)n(-c4ccc5[nH]ccc5c4)c3n2)ccc1OCCN1CCOCC1` [Example 57, 1-(1H-indol-5-yl)-6-(3-methoxy-4-(2-morpholinoethoxy)phenyl)-1H-imidazo[4,5-b]pyrazin-2(3H)-one], the IC50 is below 100 nM. Still for that read-out and setting: the value for `CNC(=O)c1ccc(-c2c[nH]c3ncc(-c4ccc(CN5CCN(C)CC5)cc4)cc23)cc1` [Example 165, N-methyl-4-{5-[4-(4-methyl-piperazin-1-ylmethyl)-phenyl]-1H-pyrrolo[2,3-b]pyridin-3-yl}-benzamide] was below 100 nM; that for `COc1cc(-c2cnc3c(c2)C(Cc2cccnc2)C(=O)N3)cc(OC)c1OC` (stereo not shown) [Example 135, 3-pyridin-3-ylmethyl-5-(3,4,5-trimethoxy-phenyl)-1,3-dihydro-pyrrolo[2,3-b]pyridin-2-one] was above 1000 nM; that for `O=c1[nH]c2ncc(-c3ccc(N4CCOCC4)cc3)nc2n1-c1ccc2scnc2c1` [Example 100, 1-(benzo[d]thiazol-5-yl)-6-(4-morpholinophenyl)-1H-imidazo[4,5-b]pyrazin-2(3H)-one] was above 1000 nM. On the same count and under the same terms, the value for `COc1cc(-c2cnc3c(c2)C(CC2CC2)C(=O)N3)cc(OC)c1OC` (stereo not shown) [Example 123, 3-(cyclopropylmethyl)-5-(3,4,5-trimethoxyphenyl)-1H-pyrrolo[2,3-b]pyridin-2(3H)-one] was 100 to 1000 nM; that for `CC(=O)N1CCN(Cc2ccc(-c3cnc4[nH]cc(-c5ccc(C(N)=O)cc5)c4c3)cc2)CC1` [Example 157, 4-{5-[4-(4-acetyl-piperazin-1-ylmethyl)-phenyl]-1H-pyrrolo[2,3-b]pyridin-3-yl}-benzamide] was below 100 nM. On the same count and under the same terms, the value for `COc1cc(-c2cnc3[nH]c(=O)n(-c4ccc5[nH]ccc5c4)c3n2)ccc1N` [Example 60, 6-(4-amino-3-methoxyphenyl)-1-(1H-indol-5-yl)-1H-imidazo[4,5-b]pyrazin-2(3H)-one] was below 100 nM.

The same assay, now with this note: read-out: MK3 IC50.
As for `O=c1[nH]c2ncc(-c3ccc(N4CCOCC4)cc3)nc2n1-c1ccc2[nH]cnc2c1` [Example 104, 1-(1H-benzo[d]imidazol-5-yl)-6-(4-morpholinophenyl)-1H-imidazo[4,5-b]pyrazin-2(3H)-one], the concentration for half-maximal inhibition (IC50) is 100 to 1000 nM. The same measure, in the same setting: then `COc1cc(-c2cnc3[nH]cc(-c4ccc5[nH]ccc5c4)c3c2)ccc1OCCN1CCNCC1` [Example 34, 3-(1H-indol-5-yl)-5-(3-methoxy-4-(2-(piperazin-1-yl)ethoxy)phenyl)-1H-pyrrolo[2,3-b]pyridine], with below 100 nM; and `COc1cc(-c2cnc3c(c2)C2(CCCC2)C(=O)N3)cc(OC)c1OC` [Example 121, 5′-(3,4,5-trimethoxyphenyl)spiro[cyclopentane-1,3′-pyrrolo[2,3-b]pyridin]-2′(1′H)-one], with 100 to 1000 nM; and `COc1cc(-c2cnc3[nH]c(=O)n(C4CCCC4)c3n2)ccc1OCCN1CCOCC1` [Example 108, 1-cyclopentyl-6-(3-methoxy-4-(2-morpholinoethoxy)phenyl)-1H-imidazo[4,5-b]pyrazin-2(3H)-one], with 100 to 1000 nM. Still for that read-out and setting: the value for `COc1cc(-c2cnc3[nH]cc(-c4ccc(-c5ncc[nH]5)cc4)c3c2)cc(OC)c1OC` [Example 167, 3-[4-(1H-imidazol-2-yl)-phenyl]-5-(3,4,5-trimethoxy-phenyl)-1H-pyrrolo[2,3-b]pyridine] was 100 to 1000 nM; that for `COc1cc(-c2cnc3[nH]cc(-c4ccc(C(N)=O)cc4)c3c2)ccc1N` [Example 27, 4-(5-(4-amino-3-methoxyphenyl)-1H-pyrrolo[2,3-b]pyridin-3-yl)benzamide] was 100 to 1000 nM; that for `O=c1[nH]c2ncc(-c3ccncc3)nc2n1-c1ccc2cn[nH]c2c1` [Example 93, 1-(1H-indazol-6-yl)-6-(pyridin-4-yl)-1H-imidazo[4,5-b]pyrazin-2(3H)-one] was 100 to 1000 nM. Consider `CN1CCN(Cc2ccc(-c3cnc4[nH]cc(-c5ccc(C(N)=O)cc5)c4c3)cc2)CC1` [Example 155, 4-{5-[4-(4-methyl-piperazin-1-ylmethyl)-phenyl]-1H-pyrrolo[2,3-b]pyridin-3-yl}-benzamide], for which the IC50 fell in the range of 100 to 1000 nM. The same measure, in the same setting: the value for `COc1cc(-c2cnc3[nH]c(=O)n(-c4ccc(O)cc4)c3n2)cc(OC)c1OC` [Example 114, 1-(4-hydroxyphenyl)-6-(3,4,5-trimethoxyphenyl)-1H-imidazo[4,5-b]pyrazin-2(3H)-one] was 100 to 1000 nM; that for `O=c1[nH]c2ncc(-c3ccc(O)cc3)nc2n1C1CCCC1` [Example 76, 1-cyclopentyl-6-(4-hydroxyphenyl)-1H-imidazo[4,5-b]pyrazin-2(3H)-one] was 100 to 1000 nM. The same measure, in the same setting: the value for `COc1ccc(-c2cnc3[nH]cc(-c4ccc5[nH]ccc5c4)c3c2)cn1` [Example 6, 3-(1H-indol-5-yl)-5-(6-methoxypyridin-3-yl)-1H-pyrrolo[2,3-b]pyridine] was 100 to 1000 nM.

Take `Cc1cc2cc(-n3c(=O)[nH]c4ncc(-c5ccc(O)cc5)nc43)ccc2[nH]1` [Example 84, 6-(4-hydroxyphenyl)-1-(2-methyl-1H-indol-5-yl)-1H-imidazo[4,5-b]pyrazin-2(3H)-one]: the concentration for half-maximal inhibition (IC50) is 100 to 1000 nM.

On to `COc1cc(-c2cnc3[nH]cc(-c4ccc(CNC(=O)Cc5ccccc5)cc4)c3c2)cc(OC)c1OC` [Example 160, 2-phenyl-N-{4-[5-(3,4,5-trimethoxy-phenyl)-1H-pyrrolo[2,3-b]pyridin-3-yl]-benzyl}-acetamide], for which the IC50 lay in the range of 100 to 1000 nM. The same measure, in the same setting: then `O=c1[nH]c2ncc(-c3ccc(O)cc3)nc2n1-c1ccc2[nH]ccc2c1` [Example 45, 6-(4-hydroxyphenyl)-1-(1H-indol-5-yl)-1H-imidazo[4,5-b]pyrazin-2(3H)-one], with 100 to 1000 nM.
